Reference: patent US4425352A, “Substituted phenoxyacetates of cyclic amines” (Agence Nationale de Valorisation de la Recherche, priority 1980, dated 1984)
Values joined by “and” are separate entries in the source; they are usually repeats but may differ in a detail not shown here. Equal values may be shown once.

What was measured:
mice = assay: Acute toxicity (LD 50) per os and intraveinous, Litchfield and Wilcoxon method; assay type: in vivo; settings: for LD 50 I.V.: intraveinous; for LD 50 P.O.: per os
Description: The toxicities were calculated according to the LITCHFIELD and WILCOXON method (J. Pharm. and Exp. Therap. 1949, 96, p. 99, 113).
The products were administered per os and per intraveinous route to mice.

fish chromatophores = assay: Action on the fish chromatophores (time of blackening); assay type: in vivo, Phoxinus Phoxinus Linne; settings: at minimum effectual concentration
Description: The physiology of fish chromatophores is dependent on hypothalamic secretions of the lower portion of the diencephalon. The psychotropic and cerebral-orientation drugs can modify the physiology of these regions [J. Thuillier et al. C.R. Soc. […] This test is known to evidence the action of the products on the diencephalon which controls distension and blackening of fish chromatophores. […] The time for the fish blackening to occur was measured. The same test was effected with Meclofexonate.

cerebral oedema of rats = assay: Actions on cerebral oedema caused by triethyltin chloride; assay type: in vivo; settings: 50 mg per kilogram
Description: The alkylated tin compounds are toxic and cause selective oedema of the central nervous system and in particular of the brain (Works of R. KATZMAN et al. Arch. Neurol. 9, 178, 1963). The water content of the cerebral tissue is increased. Similarly, the cerebral sodium content increases, while the potassium is reduced.
100 mg per kg of Meclofenoxate are required to provide the same result.

[1] = system: mice intoxicated with aurothioglucose; assay: Protective effect against the action of aurothioglucose (hyperphagia, stomach weight, weight gain); assay type: in vivo; parameters: Decrease in the stomach weight with respect to the aurothioglucose reference: unit not given here; settings: for Action against hyperphagia and weight gain of mice intoxicated with aurothioglucose: given 1/2 hour before aurothioglucose 250 mg/kg; for Weight increase: 15 days after beginning, aurothioglucose alone 49%
Description: Hunger and thirst regulation is dependent on stimulating secretions from the hypothalamus. These regulator centers may be disturbed either in acquired manner in genetically obese animals, either consequently to the destruction of the involved centers by selective poisons, such as aurothioglucose.
If 250 mg/kg of aurothioglucose are injected to mice, then the cells of the hypothalamic nuclei will degenerate and cause an hyperphagia syndrome in animals which is evidenced by:
a distension of the stomach,
a considerable increase in ponderal growing.
The mice were treated with one of the products of the invention 1/2 hour before the intraperitoneal injection of aurothioglucose (250 mg/kg).

rats = assay: Orientation test after an electroshock; assay type: in vivo
Excerpt: This test consists in causing a loss of orientation and motive disorders in rats after repetition of 4 series of electroshock [M. Herold: Acta. Int. Meet. Psycho. Drug.

[2] = system: mice rendered obese by aurothioglucose; assay: Curative action after development of obesity under the action of aurothioglucose; assay type: in vivo; settings: for Decrease in weight/Aurothioglucose references: 18 days, per os; for Activity compared with Meclofenoxate at 200 mg/kg: in words
Description: Mice were rendered obese by intra-peritoneal injections of aurothioglucose (800 mg/kg).
After the development of obesity, a plateau was obtained in the weight curve. There was then selected an homogenous group of mice and treatment with PM 170 and Meclofenoxate was initiated. The results obtained were compared with a group of reference mice treated only with aurothioglucose (ATG controls).

genetically obese mice [3] = assay: Action on genetically obese mice; assay type: in vivo; settings: for Decrease in weight: obese mice, gastric ingestion, 18 days
Description: Finally, gastric ingestion during 18 days of 200 mg/kg of PM 170 causes, in obese mice, a steady decrease in weight of 8.3%, while in the same conditions there occurs, with Meclofenoxate, a decrease in weight of 2.2%.

Diuretic action = assay type: in vivo
central nervous system = assay: Actions on the central nervous system (overall statement); assay type: in vivo; settings: versus Meclofenoxate
genetically obese mice [4] = assay: Action on genetically obese mice; assay type: in vivo; parameters: Alimentary consumption: unit not given here; settings: for Weight: in g
blood platelet clotting = assay: Effect against blood platelet clotting (pia-mater vessels); assay type: in vivo, rabbits; settings: dose not stated
Description: All the products of the invention prepared according to Examples 1 and 2 at a dose of 10 mg/kg have an effect against plaquette aggregation which was observed on the pia-mater vessels of rabbits [M. M. G. BOZEIX 7th. Int. Congress of Pharmacology, Paris, July 1978].

Compound: CN1CCCCC1COC(=O)COc1ccc(Cl)cc1 (centres unmarked) [PM 172, N-methyl-2-hydroxymethyl-piperidine 4-chloro-phenoxyacetate]
- LD 50 I.V. (mice): 160 mg
- LD 50 P.O. (mice): 1500 mg
- Time of occurrence of the blackening (fish chromatophores): 60 s
- Effect on the build up of Na+ (cerebral oedema of rats): limit the build up of Na^+
- Effect on the loss of K+ (cerebral oedema of rats): counteract the loss of K^+
- Occurrence of the oedema caused by triethyltin chloride (cerebral oedema of rats): considerably reduce the occurrence of the oedema
- Decrease in the stomach weight with respect to the aurothioglucose reference ([1]; 60 mg/kg P.O): 2.6299
- Decrease in the stomach weight with respect to the aurothioglucose reference ([1]; 100 mg/kg P.O): 2.2727
- Action against hyperphagia and weight gain of mice intoxicated with aurothioglucose [1]: counteract both hyperphagia and the weight gain

Compound: CN1CCCC(COC(=O)COc2ccc(Cl)cc2)C1 (centres unmarked) [PM 170, N-methyl-3-hydroxymethyl-piperidine (4-chloro-phenoxyacetate)]
- Toxicity compared with Meclofenoxate / overall toxicity (mice; in words): less toxic than "Meclofenoxate"
- LD 50 I.V. (mice): 175 mg
- LD 50 P.O. (mice): 2300 mg
- Time of occurrence of the blackening (fish chromatophores): 90 s
- Effect on the build up of Na+ (cerebral oedema of rats): limit the build up of Na^+
- Effect on the loss of K+ (cerebral oedema of rats): counteract the loss of K^+
- Occurrence of the oedema caused by triethyltin chloride (cerebral oedema of rats): considerably reduce the occurrence of the oedema
- Efficacy in orientation test after electroshock (rats; 100 mg, first 2 series of electroshock): slightly effective
- Decrease in the stomach weight with respect to the aurothioglucose reference ([1]; 20 mg/kg P.O): 3.2155
- Decrease in the stomach weight with respect to the aurothioglucose reference ([1]; 50 mg/kg P.O): 2.8729
- Decrease in the stomach weight with respect to the aurothioglucose reference ([1]; 100 mg/kg P.O): 4.2287
- Weight increase [1]: 34%
- Action against hyperphagia and weight gain of mice intoxicated with aurothioglucose [1]: counteract both hyperphagia and the weight gain
- Activity against increase of the stomach weight distension ([1]; in words): very high activity
- Decrease in aliment consumption/ATG references ([2]; 50 mg/kg): 10%
- Decrease in weight/Aurothioglucose references ([2]; 50 mg/kg per day): 5%
- Activity compared with Meclofenoxate at 200 mg/kg ([2]; 50 mg/kg): same activity at 50 mg/kg than Meclofenoxate at 200 mg/kg
- Decrease in aliment consumption/ATG references ([2]; 100 mg/kg): 33%
- Decrease in weight/Aurothioglucose references ([2]; 100 mg/kg per day): 12%
- Decrease in aliment consumption/ATG references ([2]; 200 mg/kg): 36%
- Decrease in weight/Aurothioglucose references ([2]; 200 mg/kg per day): 14%
- Activity compared with Meclofenoxate at 200 mg/kg ([2]; 200 mg/kg): markedly higher than Meclofenoxate at 200 mg/kg
- Activity on alimentary consumption and weight development (genetically obese mice [3]; genetically obese mice of 42-42.5 g, in words): active both on alimentary consumption and on weight development
- Decrease in weight (genetically obese mice [3]; 200 mg/kg): 8.3%
- Weight (genetically obese mice [3]; treated obese males, 200 mg/kg, obese male controls 43.3 ± 0.284, in g): 39.3 ± 0.882
- Diuretic action (Diuretic action; 100 mg/kg): slight diuretic action
- Activity on the central nervous system relative to Meclofenoxate (central nervous system): from five to twelve times more active than Meclofenoxate
- Alimentary consumption (genetically obese mice [4]; treated normal males, 200 mg/kg, normal male controls 6.307 ± 0.746): 4.716 ± 0.880
- Weight (genetically obese mice [4]; treated normal males, 200 mg/kg, normal male controls 25.34 ± 0.365): 22.22 ± 0.484
- Alimentary consumption (genetically obese mice [4]; treated obese males, 200 mg/kg, obese male controls 6.786 ± 0.853): 4.384 ± 0.886

Compound: CCN1CCCC(OC(=O)COc2ccc(Cl)cc2)C1 (centres unmarked) [PM 168, N-ethyl-3-piperidine 4-chloro-phenoxyacetate]
- LD 50 I.V. (mice): 140 mg
- LD 50 P.O. (mice): 1800 mg
- Time of occurrence of the blackening (fish chromatophores): 30 s
- Effect on the build up of Na+ (cerebral oedema of rats): limit the build up of Na^+
- Effect on the loss of K+ (cerebral oedema of rats): counteract the loss of K^+
- Occurrence of the oedema caused by triethyltin chloride (cerebral oedema of rats): considerably reduce the occurrence of the oedema
- Decrease in the stomach weight with respect to the aurothioglucose reference ([1]; 100 mg/kg P.O): 2.5510
- Decrease in the stomach weight with respect to the aurothioglucose reference ([1]; 150 mg/kg P.O): 3.37
- Action against hyperphagia and weight gain of mice intoxicated with aurothioglucose [1]: counteract both hyperphagia and the weight gain

Compound: CN(C)CCOC(=O)COc1ccc(Cl)cc1 [Meclofenoxate, dimethylaminoethyl 4-chlorophenoxyacetate, reference compound]
- LD 50 I.V. (mice): 350 mg
- LD 50 P.O. (mice): 1750 mg
- Time of occurrence of the blackening (fish chromatophores): 90 s
- Efficacy in orientation test after electroshock (rats; up to 200 mg/kg): absolutely inefficient
- Decrease in the stomach weight with respect to the aurothioglucose reference ([1]; 250 mg/kg P.O): 2.2495
- Decrease in the stomach weight with respect to the aurothioglucose reference ([1]; 300 mg/kg P.O): 1.6129
- Weight increase [1]: 45%
- minimal effective dose ([1]; Mus musculus, stomach weight, Table IV, read-out: Dosage at which (only) active): 250 mg/kg
- Times less active than PM 170 ([1]; stomach weight, versus PM 170): 12.4 times
- Activity to counteract obesity caused by aurothioglucose ([1]; versus PM 170, in words): less active than PM 170
- Decrease in aliment consumption/ATG references ([2]; 50 mg/kg): inactive
- Decrease in weight/Aurothioglucose references ([2]; 50 mg/kg per day): inactive
- Decrease in aliment consumption/ATG references ([2]; 100 mg/kg): 26%
- Decrease in weight/Aurothioglucose references ([2]; 100 mg/kg per day): 10%
- Decrease in aliment consumption/ATG references ([2]; 200 mg/kg): 23% and 22.9%
- Decrease in weight/Aurothioglucose references ([2]; 200 mg/kg per day): 5%
- Decrease in weight (genetically obese mice [3]; 200 mg/kg): 2.2%
- Effect against blood platelet clotting (blood platelet clotting): no effect against blood platelet clotting
- Diuretic action (Diuretic action; dose not stated): no effect against blood platelet clotting nor diuretic action
- Alimentary consumption (genetically obese mice [4]; treated normal females, 300 mg/kg, normal female controls 6.703 ± 0.597): 5.842 ± 0.842
- Weight (genetically obese mice [4]; treated normal females, 300 mg/kg, normal female controls 25.3 ± 0.504): 24.8 ± 0.602
- Alimentary consumption (genetically obese mice [4]; treated obese females, 300 mg/kg, obese female controls 6.347 ± 0.637): 5.542 ± 0.302
- Weight (genetically obese mice [4]; treated obese females, 300 mg/kg, obese female controls 42.5 ± 0.787): 41.2 ± 0.802
